Results reported in the NIST ThermoML archive (doi:10.1016/j.jct.2010.07.008).
± gives the expanded uncertainty stated by the source.

Conditions: Liquid, Closed cell (Static) method

CN(C)CCOCCO [2-(2-dimethylaminoethoxy)ethanol]
Conditions | vapor or sublimation pressure [kPa]
283.15 K | 0.007 ± 0.0003
293.14 K | 0.016 ± 0.0006
303.09 K | 0.0346 ± 0.0009
313.08 K | 0.0707 ± 0.0014
323.28 K | 0.1418 ± 0.0022
333.12 K | 0.2604 ± 0.0031
343.12 K | 0.4742 ± 0.0049
353.14 K | 0.8145 ± 0.0077
363.35 K | 1.419 ± 0.011
373.1 K | 2.315 ± 0.013
